Here are results for 31 substances from patent publication US10799442B2, “Compounds useful in the treatment and/or care of the skin, hair, nails, and/or mucous membranes” (LUBRIZOL ADVANCED MATERIALS, INC., priority 2015, dated 2020).

The test system of this experiment is human miRNA145. Kind of experiment: miRNA145 inhibition on Human Keratinocyte HaCaT cell line, direct quantification by luminescence. The experiment is classed as cell-based. To be noted: HaCaT cells, 0.3 mg/ml, 24 hours, normalized with Snord48; mean of 3 experiments for DD14024, one experiment for the others. Here is the method:
The synthetic peptide candidates are evaluated for the inhibition of human miRNA145 expression level using a direct miRNA145 quantification assay based on luminescence detection in a Human Keratinocyte HaCaT cell line.
HaCat cells (Deutsches Krebsforschungszentrum) are seeded at 3.0×10^4 cells/well in 96-clear wells plates and incubated in a culture medium [(DMEM High Glucose with L-Glutamine (Lonza), supplemented with 10% Fetal Bovine Serum (Cultek)] for 24 hours at 37° C. in a water-saturated atmosphere of 95% air and 5% CO2. Then, the cells with the candidates added at 0.3 mg/ml in the culture medium are treated for 24 hours at 37° C., 95% air and 5% CO2. Cells with culture medium only are treated to the same conditions to provide basal conditions. Each cell culture condition is assayed at least in 6 biological replicates. At the end of the incubation period, the cells are lysed and the relative miRNA145 expression level is quantified by a specific assay kit (QuantiGene™ 2.0 miRNA Assay Kit) following manufacturer's instructions (Affymetrix). Briefly, to capture miRNA145, culture lysates are incubated overnight at 46±1° C. in 96-white well plates with the miRNA145 specific probe set (Capture extenders and Label extenders). As an endogenous expression control, the housekeeping Snord48 is quantified using a specific probe set. Next day, the signal amplification tree is built via sequential hybridization at 46±1° C. of three probes: PreAmplifier, Amplifier and Alkaline Phosphatase Label Probe. Then, the signal is detected by adding a chemiluminescent substrate and using a Microplate Luminometer Reader (Clariostar-BMG LabTech).
The miRNA145 expression level result is normalized with the Snord48 expression level for each cell culture condition and the relative decrease in the miRNA145 expression level is calculated respect to basal control (cells treated with culture medium only). The values represent the mean of 3 independent experiments for DD14024, and for the other candidates, represent the result of one experiment.

[ ]: non-standard residue; d: D form. The star is where a group is joined. Palmitoyl = CCCCCCCCCCCCCCCC(=O)*; NHhexadecyl = CCCCCCCCCCCCCCCCN*; Myristoyl = CCCCCCCCCCCCCC(=O)*; Orn = NCCC[C@H](N)C(=O)O; NHHex = CCCCCCN*

Turning to “Ac-Ser-Gln-Glu-Met-Arg-Met-Gln-Thr-NH2 (Ac-SQEMRMQT-NH2) [DD15050]”, the “Relative level of miRNA145 respect to basal control (%)” value (“Relative level … (%)” for short) came out at 72.44 ± 3.87%.

As for “H-Gln-Asp-Met-Arg-Met-Asn-NH2 (H-QDMRMN-NH2) [DD15025]”, the “Relative level … (%)” value amounted to 86.95 ± 0.55%.

Consider “Ac-Gln-Glu-Met-Arg-Met-Gln-Tyr-OH (Ac-QEMRMQY-OH) [DD15046]”, for which the “Relative level … (%)” value came to 74.02 ± 1.98%.

Turning to “Palm-Gln-Glu-Met-Arg-Met-Gln-OH (Palmitoyl-QEMRMQ-OH) [DD15003]”, the “Relative level … (%)” value was 76.38 ± 7.00%.

Regarding “Ac-Asp-Gln-Met-Arg-Met-Gln-OH (Ac-DQMRMQ-OH) [DD15053]”, the “Relative level … (%)” value came to 58.64 ± 0.04%.

On to “Ac-Glu-Gln-Met-Arg-Met-Gln-OH (Ac-EQMRMQ-OH) [DD15054]”, for which the “Relative level … (%)” value turned out to be 72.50 ± 2.88%.

Regarding “Ac-Gln-Asp-Met-Lys-Met-Asn-OH (Ac-QDMKMN-OH) [DD15027]”, the “Relative level … (%)” value was 78.47 ± 0.74%.

“Ac-Glu-Glu-Met-Arg-Met-Gln-OH (Ac-EEMRMQ-OH) [DD15051]”: the “Relative level … (%)” value came to 92.26 ± 1.61%.

As to “Ac-Asp-Glu-Met-Arg-Met-Gln-OH (Ac-DEMRMQ-OH) [DD15012]”, the “Relative level … (%)” value is 71.05 ± 3.82%.

As for “Ac-Gln-Glu-Met-Lys-Leu-Gln-OH (Ac-QEMKLQ-OH) [DD15024]”, the “Relative level … (%)” value is recorded as 87.92 ± 1.32%.

Turning to “Ac-Gln-Glu-Met-Arg-Met-Gln-Val-Tyr-OH (Ac-QEMRMQVY-OH) [DD15049]”, the “Relative level … (%)” value is on record as 80.09 ± 7.49%.

Take Ac-QEM[Orn]MQ-OH [DD15022]: the “Relative level … (%)” value is on record as 75.41 ± 2.25%.

Consider “Ac-Gln-Glu-Met-Lys-Met-Gln-OH (Ac-QEMKMQ-OH) [DD15017]”, for which the “Relative level … (%)” value amounted to 85.50 ± 1.74%.

On to “H-Gln-Glu-Met-Arg-Ile-Gln-NH2 (H-QEMRIQ-NH2) [DD15019]”, for which the “Relative level … (%)” value is given as 67.00 ± 2.89%.

“Ac-Gln-Glu-Met-Arg-Met-Asn-OH (Ac-QEMRMN-OH) [DD15056]”: the “Relative level … (%)” value is 72.43 ± 1.39%.

As for “Palm-Gln-Glu-Leu-Arg-Met-Gln-OH (Palmitoyl-QELRMQ-OH; SMILES CCCCCCCCCCCCCCCC(=O)N[C@@H](CCC(N)=O)C(=O)N[C@@H](CCC(=O)O)C(=O)N[C@@H](CC(C)C)C(=O)N[C@@H](CCCNC(=N)N)C(=O)N[C@@H](CCSC)C(=O)N[C@@H](CCC(N)=O)C(=O)O) [DD15015]”, the “Relative level … (%)” value stood at 14.07 ± 0.28%.

As to “Ac-Gln-Glu-Met-Arg-Met-Gln-NH2 (Ac-QEMRMQ-NH2) [DD14023]”, the “Relative level … (%)” value turned out to be 87.03 ± 2.65%.

As to “Myr-Gln-Glu-Met-Arg-Met-Gln-NH2 (Myristoyl-QEMRMQ-NH2) [DD15052]”, the “Relative level … (%)” value came out at 92.94 ± 1.35%.

In the case of “Ac-Pro-Val-Gln-Glu-Met-Arg-Met-Gln-OH (Ac-PVQEMRMQ-OH) [DD15048]”, the “Relative level … (%)” value stood at 89.54 ± 3.79%.

In the case of “Ac-Gln-Glu-Met-Arg-Met-Gln-NHC6H13 (Ac-QEMRMQ-NHHex) [DD15004]”, the “Relative level … (%)” value is 89.03 ± 5.37%.

Turning to “Ac-Pro-Gln-Glu-Met-Arg-Met-Gln-OH (Ac-PQEMRMQ-OH) [DD15045]”, the “Relative level … (%)” value amounted to 90.71 ± 4.78%.

For “Myr-Glu-Glu-Met-Arg-Met-Gln-OH (Myristoyl-EEMRMQ-OH; SMILES CCCCCCCCCCCCCC(=O)N[C@@H](CCC(=O)O)C(=O)N[C@@H](CCC(=O)O)C(=O)N[C@@H](CCSC)C(=O)N[C@@H](CCCNC(=N)N)C(=O)N[C@@H](CCSC)C(=O)N[C@@H](CCC(N)=O)C(=O)O) [DD15011]”, the “Relative level … (%)” value was 73.29 ± 4.37%.

On to “Ac-Gln-Glu-Met-Arg-Met-Glu-OH (Ac-QEMRME-OH) [DD15020]”, for which the “Relative level … (%)” value amounted to 62.43 ± 0.89%.

Consider “Ac-Glu-Glu-Ile-Arg-Met-Gln-NHC16H33 (Ac-EEIRMQ-NHhexadecyl; SMILES CCCCCCCCCCCCCCCCNC(=O)[C@H](CCC(N)=O)NC(=O)[C@H](CCSC)NC(=O)[C@H](CCCNC(=N)N)NC(=O)[C@@H](NC(=O)[C@H](CCC(=O)O)NC(=O)[C@H](CCC(=O)O)NC(C)=O)[C@@H](C)CC) [DD15023]”, for which the “Relative level … (%)” value was 74.48 ± 3.34%.

Consider “H-Gln-Glu-Met-Arg-Met-Gln-OH (H-QEMRMQ-OH) [DD15002]”, for which the “Relative level … (%)” value is recorded as 89.75 ± 0.69%.

For the substance “Ac-Gln-Glu-Met-Arg-Met-Gln-Thr-NH2 (Ac-QEMRMQT-NH2) [DD15047]”, the “Relative level … (%)” value is 77.67 ± 9.10%.

On to “Ac-Gln-Asp-Met-Arg-Met-Gln-NHC6H13 (Ac-QDMRMQ-NHHex; SMILES CCCCCCNC(=O)[C@H](CCC(N)=O)NC(=O)[C@H](CCSC)NC(=O)[C@H](CCCNC(=N)N)NC(=O)[C@H](CCSC)NC(=O)[C@H](CC(=O)O)NC(=O)[C@H](CCC(N)=O)NC(C)=O) [DD15013]”, for which the “Relative level … (%)” value turned out to be 84.32 ± 6.96%.

With “H-Gln-Glu-Ile-Arg-Met-Gln-NH2 (H-QEIRMQ-NH2) [DD15016]”, the “Relative level … (%)” value was 87.63 ± 4.46%.

For the substance “Ac-Asn-Glu-Ile-Arg-Val-Gln-OH (Ac-NEIRVQ-OH) [DD15026]”, the “Relative level … (%)” value is 77.60 ± 5.43%.

For the substance “H-Gln-Glu-Met-Arg-Leu-Gln-NH2 (H-QEMRLQ-NH2) [DD15055]”, the “Relative level … (%)” value was 67.03 ± 0.23%.

In the case of “Ac-Gln-Gln-Met-Arg-Met-Gln-OH (Ac-QQMRMQ-OH) [DD15014]”, the “Relative level … (%)” value was found to be 80.06 ± 3.47%.
